# Measurements as given in paper PMC8815074, “Development of ^11C-Labeled ASEM Analogues for the Detection of Neuronal Nicotinic Acetylcholine Receptors (α7-nAChR)” (ACS Chemical Neuroscience, 2022).
# Biological target: T1, α7-nAChR (Rattus norvegicus, UniProt Q05941)
# T1 construct: gene Chrna7; native receptor in rat brain sections
# Experiment: radioligand autoradiography ([…] and 3H, […]) with blocking by ASEM and unlabeled KIn-83
# Conditions: read-out: % of total binding displaced at 10 uM
# T1 sequence (Q05941 23-502): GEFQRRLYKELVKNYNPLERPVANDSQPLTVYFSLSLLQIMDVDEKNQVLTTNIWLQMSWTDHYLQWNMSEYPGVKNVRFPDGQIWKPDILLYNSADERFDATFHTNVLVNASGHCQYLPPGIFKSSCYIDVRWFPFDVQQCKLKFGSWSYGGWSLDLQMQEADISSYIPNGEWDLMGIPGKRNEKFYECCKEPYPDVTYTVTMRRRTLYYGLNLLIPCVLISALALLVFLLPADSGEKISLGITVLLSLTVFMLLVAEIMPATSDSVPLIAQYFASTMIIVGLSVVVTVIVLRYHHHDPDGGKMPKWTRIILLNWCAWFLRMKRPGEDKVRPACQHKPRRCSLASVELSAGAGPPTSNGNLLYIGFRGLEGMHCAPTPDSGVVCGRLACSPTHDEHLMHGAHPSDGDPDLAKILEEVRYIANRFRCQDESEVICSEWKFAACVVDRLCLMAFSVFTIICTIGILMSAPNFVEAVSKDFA
smiles,measurement,value
COc1cccc2c1S(=O)(=O)c1cc(N3CCN4CCC3CC4)ccc1-2 [KIn-83],inhibition at 10 µM,80%
